In patent publication US20020166149A1, “Sustained totipotent regenerable tissue culture of Arundo donax (Giant Reed) and totipotent tissue and plants produced therefrom” (priority 2001, published 2002):

Key:
A. donax plants (roots) = test: Trichloroethene challenge of cloned plants in phytoreactor; format: in vivo, Arundo donax L.; conditions: 0.25 mM in hydroponic solution; after recovery period of 3 to 4 weeks
Description: Sustained titopotent cultures of A donax were grown as described in Example 2, and cloned plants derived from the titopotent tissues were established in a standard liquid hydroponic solution in plastic tubs (Shown in FIG. 4A). In one phytoreactor tub, trichloroethene (trichloroethylene) was added to a concentration of 0.25 mM. This was believed to be a high concentration of the organic material, because the allowable EPA concentration is 0.005 mg/l.

A. donax explants = test: Phosphinothricin selection of explants on solid selective medium; format: cell-based, Arundo donax L.; conditions: 10 mg/l
Description: Cross-sectional segment of immature A. donax inflorescence were prepared and cultivated as described in Example 2. The totipotent tissue was cocultivated with Agrobacterium tumefaciens carrying plasmid pMSF3022, which carried the bar gene for positive selection in plant cells. The gene confers resistance to the antibiotic/herbicide phosphinothricin.
Cocultivation was carried out in 6 ml. of liquid primary culture medium for four days in the dark at room temperature. Explants were then rinsed with liquid medium and placed on solid selective and non-selective control medium containing the antibiotic/herbicide phosphinothricine at 10 mg/l. All medium contained tidarcillin at 400 mg/l to eliminate residual A. tumefaciens. Controls include explants incubated without A. tumefaciens. […] This can be contrasted with control explants (which were not contacted with A. tumefaciens) that were killed by 10 mg/l of phosphinothricin (FIG. 3A). Also shown are control explants that have developed callus in the absence of phosphinothricin (FIG. 3B), and cocultivated explants that have developed callus in the absence of phosphinothricin (FIG. 3D).

| SMILES | state of roots after challenge (A. donax plants (roots)) | effect on explants cocultivated with Agrobacterium tumefaciens (bar gene) (A. donax explants; cocultivated explants) | effect on control explants (A. donax explants; control explants not contacted with A. tumefaciens) |
| --- | --- | --- | --- |
| ClC=C(Cl)Cl [trichloroethene] | fully recovered | – | – |
| CP(=O)(O)CC[C@H](N)C(=O)O [phosphinothricin] | – | development of herbicide resistant embryogenic tissue | killed |
